Values quoted from earlier work in patent US7709469B2, “P2X7 receptor antagonists and methods of use” (Abbott Laboratories, priority 2005, dated 2010).

Experiments:
[1] = biological target: T1, P2X7 (Rattus norvegicus, UniProt Q64663); design: Rats with SCI were administered P2X7 receptor irreversible antagonists oATP and PPADS; host or cells: living rats (endogenous receptor); conditions: rats with SCI
T1 sequence (Q64663 1-595): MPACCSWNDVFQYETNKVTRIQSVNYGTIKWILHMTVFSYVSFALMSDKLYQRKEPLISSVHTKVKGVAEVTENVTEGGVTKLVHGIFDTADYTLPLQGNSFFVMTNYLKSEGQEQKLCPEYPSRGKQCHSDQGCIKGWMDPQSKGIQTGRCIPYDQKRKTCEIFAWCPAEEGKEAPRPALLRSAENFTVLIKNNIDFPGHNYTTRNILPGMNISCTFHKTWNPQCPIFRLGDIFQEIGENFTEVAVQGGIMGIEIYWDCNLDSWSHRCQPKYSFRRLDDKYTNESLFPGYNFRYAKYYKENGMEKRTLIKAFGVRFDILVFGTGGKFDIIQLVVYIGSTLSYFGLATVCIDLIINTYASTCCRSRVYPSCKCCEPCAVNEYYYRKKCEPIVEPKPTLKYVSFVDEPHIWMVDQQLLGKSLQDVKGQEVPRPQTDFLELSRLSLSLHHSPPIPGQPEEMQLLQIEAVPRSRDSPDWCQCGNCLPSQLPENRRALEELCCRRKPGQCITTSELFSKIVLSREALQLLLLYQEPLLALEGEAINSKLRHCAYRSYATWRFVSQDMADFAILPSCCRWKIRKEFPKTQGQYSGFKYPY

[2] = biological target: T1, P2X7; design: host or cells: living rats (endogenous receptor); conditions: inflamed rats

| SMILES | histological injury and recovery of motor function after SCI [1] | antinociceptive properties [2] |
| --- | --- | --- |
| Cc1nc(N=Nc2ccc(S(=O)(=O)O)cc2S(=O)(=O)O)c(COP(=O)(O)O)c(C=O)c1O [PPADS] | decrease of histological injury and improved recovery of motor function |  |
| Nc1ncnc2c1ncn2[C@@H](C=O)O[C@@H](C=O)COP(=O)(O)OP(=O)(O)OP(=O)(O)O [oATP, Oxidized ATP] | decrease of histological injury and improved recovery of motor function | possess peripherally mediated antinociceptive properties |
